The subject of data set [1] is isolated mouse liver mitochondria. Nature of the data set: Example 11: mitochondrial respiration and membrane potential. Here is the method:
Isolated mouse liver mitochondria will be incubated with 100 pM of SPN10(s) (with or without aromatic-cationic peptides) or peptide conjugates, and oxygen consumption will be measured. […] Mitochondrial membrane potential will be measured using TMRM. It is anticipated that addition of mitochondria will result in immediate quenching of the TMRM signal, which will be readily reversible by the addition of FCCP, indicating mitochondrial depolarization. It is anticipated that the addition of Ca^2+ (150 μM) will result in immediate mitochondrial depolarization followed by progressive loss of quenching indicative of MPT.

A further data set concerns murine burn injury model. Nature of the data set: Example 48: skeletal muscle redox state after burn injury (nitroxide EPR). Format: in vivo, mouse. To be noted: 6-hour time point; i.p. 30 minutes before and immediately after burn. Here is the method: The redox state of the gastrocnemius muscle immediately below a local cutaneous burn (90° C. for 3 sec) will be evaluated by nitroxide EPR. It is anticipated that the redox state in the muscle will be compromised by burn injury, with the most dramatic effect at 6 hours post-burn.
Peptide conjugates (3 mg/kg), aromatic-cationic peptides (an equivalent molar dose of aromatic-cationic peptide based on the concentration of the aromatic-cationic peptide administered in the peptide conjugate treatment group), SPN10(s) (an equivalent molar dose of SPN10 based on the concentration of SPN10 administered in the peptide conjugate treatment group) or SPN10(s) in combination with aromatic-cationic peptides (e.g., an equivalent molar dose of SPN10 based on the concentration of SPN10 administered in the peptide conjugate treatment group and an equivalent molar dose of aromatic-cationic peptide based on the concentration of aromatic-cationic peptide administered in the peptide conjugate treatment group) will be administered i.p. 30 minutes before burn, and immediately after burn.

The next data set has as its system male C57BL mice. As to the kind of experiment: Example 46: burn-induced liver apoptosis. Format: in vivo, mouse. Here is the method: Six-to-eight week old male C57BL mice will be subjected to 30% total body surface (TBSA) burn injury and subsequently injected daily with saline vehicle; peptide conjugates (5 mg/kg body weight); aromatic-cationic peptides (an equivalent molar dose of aromatic-cationic peptide based on the concentration of the aromatic-cationic peptide administered in the peptide conjugate treatment group); SPN10(s) (an equivalent molar dose of SPN10 based on the concentration of SPN10 administered in the peptide conjugate treatment group); or SPN10(s) in combination with aromatic-cationic peptides (e.g., an equivalent molar dose of SPN10 based on the concentration of SPN10 administered in the peptide conjugate treatment group and an equivalent molar dose of aromatic-cationic peptide based on the concentration of aromatic-cationic peptide administered in the peptide conjugate treatment group). A weight- and time-matched sham-burn group exposed to lukewarm (˜37° C.) will serve as controls. Liver tissues will be collected 1, 3, and 7 days after burn injury treatment and analyzed for apoptosis (TUNEL), activated caspase levels (Western blot), and caspase activity (enzymatic assay).

A further data set relates to vincristine-related pain. Nature of the data set: Treatment of vincristine-induced hyperalgesia in humans. Format: in vivo, human. The conditions noted are these: s.c., once daily for 14 days. The source says: Patients will be recruited to the study as they present in clinic with chronic (>6 months' duration), spontaneous, ongoing, vincristine-related pain. Those enrolled will rate their daily maximum level of pain at 4 or greater on a visual analogue scale (VAS). The patients will be screened for their willingness to enroll in the study, and informed consent will be obtained. Healthy subjects will also be recruited for collection of comparison data. No subjects in either the patient or comparison group will have known risk factors for any other cause of peripheral neuropathy, including diabetes, AIDS, chronic alcoholism, or previous radiation exposure. […] Touch and Sharpness Detection Thresholds-Touch detection thresholds will be determined with von Frey monofilaments using the up/down method as previously reported. […] The force of the filament detected four consecutive times will be assigned as the touch detection threshold. Sharpness detection will be determined using weighted 30-gauge metal cylinders. […] The percentages of each reply will be calculated and then combined into group grand means for comparison. The 50% sharpness detection threshold will be calculated as the weighted needle that caused five or more sharp responses after 10 consecutive stimuli. Grooved Pegboard Test-Manual dexterity will be assessed with the grooved pegboard test. […]

The text below walks through data of patent US20240108740A1, “THERAPEUTIC COMPOSITIONS INCLUDING SPN10 AND USES THEREOF” (Stealth BioTherapeutics Inc., priority 2022, published 2024).

SMILES strings stand for the structures. Residues, ends and D or L forms follow the SMILES beside them.

With `N=C(N)NCCC[C@H](NC(=O)[C@@H](N)Cc1c[nH]c2ccccc12)C(=O)N[C@@H](Cc1c[nH]c2ccccc12)C(=O)N[C@@H](CCCCN)C(N)=O` [SPN10, H-L-Trp-L-Arg-L-Trp-L-Lys-NH2] (H-WRWK-NH2), in data set [1] (100 pM), the “respiratory ratio (state 3/state 4)” value is 6.2 versus 6.0. The “mitochondrial depolarization or MPT by the compound alone (TMRM)” value in data set [1] (even at 200 μM) was “will not cause mitochondrial depolarization or MPT”. The “rate of nitroxide reduction in muscle beneath the burn” value in the data set with murine burn injury model is listed as “significantly increase the rate of nitroxide reduction”. Further, the “rate of apoptosis in the liver after burn (TUNEL)” value with male C57BL mice (30% TBSA burn, days 1, 3, 7) is on record as “attenuate or prevent this effect”. Moreover, in the data set with male C57BL mice (compared to burn control subjects), the “protein oxidation following burn injury” value is listed as “decrease in protein oxidation”. Further, the “caspase-3 activation (Western blot)” value in the data set on male C57BL mice (days 3 and 7 post-burn) is recorded as “attenuate or suppress caspase-3 activation”. Moreover, in the data set with male C57BL mice (post-burn day 7), the “caspase activity (enzymatic assay)” value is listed as “reduce caspase activity to a level not statistically different from that of sham control group”. Further, in the data set on vincristine-related pain, the hyperalgesia symptoms result was “reduction”.
